The source of these data is US20230398119A1, “COMBINATION THERAPY INVOLVING DIARYL MACROCYCLIC COMPOUNDS” (TURNING POINT THERAPEUTICS, INC., priority 2019, published 2023).

One test deals with HUP-T4. In words: Pancreatic Cancer Cell Viability Assay. The test is classed as cell-based. The following applies: Homo sapiens; HUP-T4, KRAS G12V; single agent. The protocol:
Cell proliferation was measured using CellTiter-Glo luciferase-based ATP detection assay (Promega) following the manufacturer's protocol. IC50 determinations were performed using GraphPad Prism software (GraphPad, Inc., San Diego, CA).

A further test concerns NCI-H358. In words: NSCLC Cell Viability Assay. The test is classed as cell-based. The note with it: Homo sapiens. The protocol:
Cell proliferation was measured using CellTiter-Glo luciferase-based ATP detection assay (Promega) following the manufactures's protocol. IC50 determinations were performed using GraphPad Prism software (GraphPad, Inc., San Diego, CA).

The test system of the next test is Calu-6 cells. As to the kind of experiment: Caspase-Glo 3/7 apoptosis assay. The test is classed as cell-based, human. The note with it: single agent, 48 hours, trametinib 50 nM. The protocol:
Two thousand cells per well were seeded in 384 well white plate, and then treated with compounds for 24 or 48 hours (37° C., 5% CO2). Cell caspase-3/7 activity, a major hallmark of apoptosis, was measured using Caspase-Glo® 3/7 detection assay (Promega) following the manufactures's protocol.

Like-named read-outs stand apart in the source and are kept apart here.

Turning to `C[C@H]1CNC(=O)c2cnn3ccc(nc23)N[C@H](C)c2cc(F)ccc2O1` [Compound 1, (7S,13R)-11-fluoro-7,13-dimethyl-6,7,13,14-tetrahydro-1,15-ethenopyrazolo[4,3-f][1,4,8,10]benzoxatriazacyclotridecin-4(5H)-one], in the test on HUP-T4, the IC50 was 2210 nM.
With `CC(=O)Nc1cccc(-n2c(=O)n(C3CC3)c(=O)c3c(Nc4ccc(I)cc4F)n(C)c(=O)c(C)c32)c1` [Trametinib, N-(3-{3-cyclopropyl-5-[(2-fluoro-4-iodophenyl)amino]-6,8-dimethyl-2,4,7-trioxo-3,4,6,7-tetrahydropyrido[4,3-d]pyrimidin-1(2H)-yl}phenyl)acetamide], the IC50 in the test on NCI-H358 (NCI-H358, H358, trametinib alone, read-out: IC50 against H358 cell proliferation) turned out to be 100 nM; in the test with NCI-H358 (NCI-H358, H358, trametinib with Compound 1 at 1 μM, read-out: IC50 against H358 cell proliferation) it was 3 nM; with NCI-H358 (NCI-H358, NCI-H358, KRAS G12C, single agent, read-out: IC50), 100 nM. Moreover, in the test with Calu-6 cells, the caspase-3/7 activity result is “increased”.
